Measured values reported in publication PMC7470115, “Design, synthesis and biological evaluation of novel tetrahydrothieno [2,3-c]pyridine substitued benzoyl thiourea derivatives as PAK1 inhibitors in triple negative breast cancer” (Journal of Enzyme Inhibition and Medicinal Chemistry, 2020).

Columns and labels:
[1] = system: MDA-MB-231 cells; assay: Cell viability assay (MTT); type: cell-based; conditions: 50 μM
Description: MDA-MB-231 were purchased from American Type Culture Collection (ATCC, Manassas, VA, USA). Cells were cultured in DMEM with 10% foetal bovine serum and incubated with 5% CO2. Antibodies used in this study were as follows: cdc25c (4688, CST), pcdc2^Tyr[15] (4539, CST), cyclinB1 (4135, CST), PAK1 (ab223849, CST), p-PAK1^Ser199 (ab192814, abcam), JNK (9252, CST), p-JNK (9255, CST), c-Jun (9165, CST), p-c-Jun (3270, CST), p-c-Raf^Ser259(9421, CST), p-MEK ^Ser217/221 (9154, CST), p-ERK ^Thr202/Tyr204 (9101, CST), β-actin (3700, CST). MTT (M2128) was purchased from Sigma- Aldrich (St. Louis, MO, USA).
Cells were dispensed in 96-well plates at a density of 5 × 10^4 cells/ml. After 24 h or 48 h incubation, cells were treated with different concentrations of compounds for the indicated time periods. Cell viability was measured by the MTT assay.

[2] = target: PAK1 (Homo sapiens, UniProt Q13153); assay: PAK1 enzymatic assay (Kinase-Glo Plus / ADP-Glo luminescence); type: biochemical; conditions: for IC50: tested in triplicate, mean ± SD, 50 µM ATP, read-out: Kinase inhibitory activity (IC50, μM) PAK1
Chain of PAK1 (Q13153 whole entry): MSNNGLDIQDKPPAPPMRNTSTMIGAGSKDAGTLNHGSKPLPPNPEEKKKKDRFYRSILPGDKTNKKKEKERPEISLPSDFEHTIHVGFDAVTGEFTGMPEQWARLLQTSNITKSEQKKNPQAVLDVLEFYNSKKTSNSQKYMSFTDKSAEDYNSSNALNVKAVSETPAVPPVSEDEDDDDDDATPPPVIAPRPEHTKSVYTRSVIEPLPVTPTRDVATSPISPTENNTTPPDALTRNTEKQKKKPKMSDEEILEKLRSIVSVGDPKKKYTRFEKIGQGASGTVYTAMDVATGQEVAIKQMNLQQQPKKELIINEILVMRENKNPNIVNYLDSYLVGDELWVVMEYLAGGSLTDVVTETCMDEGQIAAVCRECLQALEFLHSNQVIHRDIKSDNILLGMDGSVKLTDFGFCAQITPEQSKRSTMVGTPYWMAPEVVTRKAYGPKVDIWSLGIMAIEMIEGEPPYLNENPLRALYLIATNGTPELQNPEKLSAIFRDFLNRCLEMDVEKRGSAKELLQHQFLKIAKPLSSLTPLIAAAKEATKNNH
Description: These assays were carried out as described previously. All of the enzymatic reactions were conducted at 30 °C for 40 min. The 50 µl reaction mixture contains 40 mM Tris, pH 7.4, 10 mM MgCl2, 0.1 mg/ml BSA, 1 mM DTT, 50 µM ATP, 0.2 μg/ml PAK1 and 100 uM lipid substrate. The compounds were diluted in 10% DMSO and 5 µl of the dilution was added to a 50 µl reaction so that the final concentration of DMSO is 1% in all of the reactions. The assay was performed using the Kinase-Glo Plus luminescence kinase assay kit and ADP-Glo Plus luminescence kinase assay kit. It measures kinase activity by quantitating the amount of ATP remaining in solution following a kinase reaction. The luminescent signal from the assay is correlated with the amount of ATP present and is inversely correlated with the amount of kinase activity. The IC50 values were calculated using nonlinear regression with normalised dose − response fit using Prism GraphPad software.

Compound	IC50 [2]	also measured
Cc1ccccc1C(=O)N1CCc2c(sc(NC(=S)NC(=O)c3cccc(C(F)(F)F)c3)c2C(N)=O)C1 [Compound 7a, 6–(2-methylbenzoyl)-2–(3-(3-(trifluoromethyl)benzoyl)thioureido)-4,5,6,7-tetrahydrothieno[2,3-c]pyridine-3-carboxamide]	10.2 ± 1.13 µM	–
NC(=O)c1c(NC(=S)NC(=O)c2cccc(C(F)(F)F)c2)sc2c1CCN(C(=O)c1ccc(Cl)cc1)C2 [Compound 7b, 6–(4-chlorobenzoyl)-2–(3-(3-(trifluoromethyl)benzoyl)thioureido)-4,5,6,7-tetrahydrothieno[2,3-c]pyridine-3-carboxamide]	13.2 ± 1.39 µM	–
NC(=O)c1c(NC(=S)NC(=O)c2cccc(C(F)(F)F)c2)sc2c1CCN(C(=O)c1ccccc1Cl)C2 [Compound 7c, 6–(2-chlorobenzoyl)-2–(3-(3-(trifluoromethyl)benzoyl)thioureido)-4,5,6,7-tetrahydrothieno[2,3-c]pyridine-3-carboxamide]	9.37 ± 1.03 µM	melting point: 166 to 169 °C
CC(C)CC(=O)N1CCc2c(sc(NC(=S)NC(=O)c3cccc(C(F)(F)F)c3)c2C(N)=O)C1 [Compound 7f, 6–(3-methylbutanoyl)-2–(3-(3-(trifluoromethyl)benzoyl)thioureido)-4,5,6,7-tetrahydrothieno[2,3-c]pyridine-3-carboxamide]	3.87 ± 0.35 µM	–
NC(=O)c1c(NC(=S)NC(=O)c2cccc(C(F)(F)F)c2)sc2c1CCN(C(=O)CCCl)C2 [Compound 7g, 6–(3-chloropropanoyl)-2–(3-(3-(trifluoromethyl)benzoyl)thioureido)-4,5,6,7-tetrahydrothieno[2,3-c]pyridine-3-carboxamide]	5.75 ± 0.63 µM	–
C/C=C/C(=O)N1CCc2c(sc(NC(=S)NC(=O)c3cccc(C(F)(F)F)c3)c2C(N)=O)C1 [Compound 7h, (E)-6-(but-2-enoyl)-2–(3-(3-(trifluoromethyl)benzoyl)thioureido)-4,5,6,7-tetrahydrothieno[2,3-c]pyridine-3-carboxamide]	4.14 ± 0.51 µM	–
C=C(C)C(=O)N1CCc2c(sc(NC(=S)NC(=O)c3cccc(C(F)(F)F)c3)c2C(N)=O)C1 [Compound 7i, 6-methacryloyl-2–(3-(3-(trifluoromethyl)benzoyl)thioureido)-4,5,6,7-tetrahydrothieno[2,3-c]pyridine-3-carboxamide]	3.42 ± 0.33 µM	–
NC(=O)c1c(NC(=S)NC(=O)c2cccc(C(F)(F)F)c2)sc2c1CCN(C(=O)C1CCC1)C2 [Compound 7k, 6-(cyclobutanecarbonyl)-2–(3-(3-(trifluoromethyl)benzoyl)thioureido)-4,5,6,7-tetrahydrothieno[2,3-c]pyridine-3-carboxamide]	0.68 ± 0.07 µM	–
NC(=O)c1c(NC(=S)NC(=O)c2cccc(C(F)(F)F)c2)sc2c1CCN(C(=O)C1CCCC1)C2 [Compound 7l, 6-(cyclopentanecarbonyl)-2–(3-(3-(trifluoromethyl)benzoyl)thioureido)-4,5,6,7-tetrahydrothieno[2,3-c]pyridine-3-carboxamide]	1.09 ± 0.09 µM	–
NC(=O)c1c(NC(=S)NC(=O)c2cccc(C(F)(F)F)c2)sc2c1CCN(C(=O)C1CCCCC1)C2 [Compound 7m, 6-(cyclohexanecarbonyl)-2–(3-(3-(trifluoromethyl)benzoyl)thioureido)-4,5,6,7-tetrahydrothieno[2,3-c]pyridine-3-carboxamide]	4.55 ± 0.51 µM	–
NC(=O)c1c(NC(=S)NC(=O)c2cccc(C(F)(F)F)c2)sc2c1CCN(C(=O)C1CCOCC1)C2 [Compound 7n, 6-(tetrahydro-2H-pyran-4-carbonyl)-2–(3-(3-(trifluoromethyl)benzoyl)thioureido)-4,5,6,7-tetrahydrothieno[2,3-c]pyridine-3-carboxamide]	4.87 ± 0.65 µM	–

Now from value to compound, other results behind:

IC50 [2]	Compound	also measured
23.5 µM	CC(C)(C)OC(=O)N1CCc2c(sc(NC(=O)c3ccccc3)c2C(N)=O)C1 [2169–1087]	Antiproliferatory activity in MDA-MB-231 cells at 50 μM [1]: no antiproliferatory activity; inhibition at 30 µM ([2]; read-out: PAK1 inhibition rate at 30 μM): 78%
12.1 ± 1.35 µM	CC(C)(C)OC(=O)N1CCc2c(sc(NC(=S)NC(=O)c3ccc(C(F)(F)F)cc3)c2C(N)=O)C1 [Compound 5n, Tert-butyl-3-carbamoyl-2–(3-(4-(trifluoromethyl)benzoyl)thioureido)-4,7-dihydrothieno[2,3-c]pyridine-6(5H)-carboxylate]	–
7.43 ± 0.81 µM	CC(C)(C)OC(=O)N1CCc2c(sc(NC(=S)NC(=O)c3cccc(Cl)c3Cl)c2C(N)=O)C1 [Compound 5o, Tert-butyl-3-carbamoyl-2–(3-(2,3-dichlorobenzoyl)thioureido)-4,7-dihydrothieno[2,3-c]pyridine-6(5H)-carboxylate]	–
19.3 ± 1.85 µM	CC(C)(C)OC(=O)N1CCc2c(sc(NC(=S)NC(=O)C3CCCCC3)c2C(N)=O)C1 [Compound 5p, Tert-butyl-3-carbamoyl-2–(3-(cyclohexanecarbonyl)thioureido)-4,7-dihydrothieno[2,3-c]pyridine-6(5H)-carboxylate]	–
15.6 ± 1.64 µM	CC(C)(C)OC(=O)N1CCc2c(sc(NC(=S)NC(=O)Cc3cccs3)c2C(N)=O)C1 [Compound 5q, Tert-butyl-3-carbamoyl-2–(3-(2-(thiophen-2-yl)acetyl)thioureido)-4,7-dihydrothieno[2,3-c]pyridine-6(5H)-carboxylate]	–
1.15 ± 0.97 µM	CC(=O)N1CCc2c(sc(NC(=S)NC(=O)c3cccc(C(F)(F)F)c3)c2C(N)=O)C1 [Compound 7d, 6-acetyl-2–(3-(3-(trifluoromethyl)benzoyl)thioureido)-4,5,6,7-tetrahydrothieno[2,3-c]pyridine-3-carboxamide]	melting point: 166 to 169 °C
3.08 ± 0.29 µM	CC(C)C(=O)N1CCc2c(sc(NC(=S)NC(=O)c3cccc(C(F)(F)F)c3)c2C(N)=O)C1 [Compound 7e, 6-isobutyryl-2–(3-(3-(trifluoromethyl)benzoyl)thioureido)-4,5,6,7-tetrahydrothieno[2,3-c]pyridine-3-carboxamide]	–
